We go through 15 compounds from patent publication US4822790A, “1-Sulfo-2-oxoazetidine derivatives and their production” (Takeda Chemical Industries, Ltd., priority 1980, dated 1989).

In brackets after ≈: the same amount, converted by molar mass. Where a name gives a salt, the structure may show the parent alone.

Type in all cases: cell-based
Experiment [1] deals with Enterobacter cloacae IFO 12937. The experiment is described as follows: MIC by agar dilution method (Experiment C), Enterobacter cloacae IFO 12937. Particulars: IFO12937, Trypticase Soy agar, about 10^8 CFU/ml, 37° C. overnight, read-out: Minimal inhibitory concentration (MIC). On the procedure:
(§1) The tables given below set forth the minimal inhibitory concentrations (MIC) of some typical compounds [I]C as obtained in the working examples. The minimal inhibitory concentrations of the tested compounds are determined by the agar dilution method. Namely, 1.0 ml. of aqueous solution of the tested compounds diluted by serial dilutions is poured into test petri dish. Subsequently 9.0 ml. of Trypticase Soy agar is poured into the dish and mixed. On the mixed agar plate, one loopful of bacterial suspension (about 10^8 CFU/ml.) of test microorganism is streaked. After the incubation at 37° C. overnight, the lowest concentration of the tested compounds which cause apparently complete inhibition of growth of the test microorganism is taken to be minimal inhibitory concentration. (1) Enterobacter cloacae IFO 12937
Background: Agar dilution tests growth on a series of plates holding different concentrations.

The test system of experiment [2] is Klebsiella pneumoniae TN 1711. The experiment is described as follows: MIC by agar dilution method (Experiment C), Klebsiella pneumoniae TN 1711. Conditions: TN1711, Trypticase Soy agar, about 10^8 CFU/ml, 37° C. overnight, read-out: Minimal inhibitory concentration (MIC). On the procedure:
as §1, with “(2) Klebsiella pneumoniae TN 1711” for “(1) Enterobacter cloacae IFO 12937”

Another experiment has as its system Escherichia coli T-7. The experiment is described as follows: Antibacterial test (MIC), Escherichia coli T-7. Conditions: Escherichia coli, T7; medium TSA; read-out: Minimum inhibitory concentration (MIC). The source says:
(§2) The following is media and compounds employed in the antibacterial test.
(§3) TSA=Trypticase soy agar [Baltimore Biologicals (U.S.A.)]
(§4) B-TSA=Blood trypticase soy agar

A further experiment has as its system Escherichia coli 0-111. Description: Antibacterial test (MIC), Escherichia coli 0-111. Particulars: Escherichia coli, 0111; medium TSA; read-out: Minimum inhibitory concentration (MIC).
Excerpt: as §2, §3, §4

The subject of experiment [3] is Streptococcus pyogenes E-14. The experiment is described as follows: Antibacterial test (MIC), Streptococcus pyogenes E-14. Particulars: Streptococcus pyogenes, E14, read-out: Minimum inhibitory concentration (MIC).
Excerpt: as §2, §3, §4

Experiment [4] concerns Streptococcus pneumoniae Type I. The experiment is described as follows: Antibacterial test (MIC), Streptococcus pneumoniae Type I. Particulars: Streptococcus pneumoniae, read-out: Minimum inhibitory concentration (MIC).
Excerpt: as §2, §3, §4

In experiment [5] the test system is Staphylococcus aureus 308A-1. The experiment is described as follows: Antibacterial test (MIC), Staphylococcus aureus 308A-1. Conditions: Staphylococcus aureus, 308A1, read-out: Minimum inhibitory concentration (MIC).
Excerpt: as §2, §3, §4

Experiment [6] has as its system Streptococcus mitis America. Description: Antibacterial test (MIC), Streptococcus mitis America. Particulars: Streptococcus mitis, read-out: Minimum inhibitory concentration (MIC).
Excerpt: as §2, §3, §4

The test system of experiment [7] is Pseudomonas aeruginosa IFO 3455. The experiment is described as follows: Antibacterial test (MIC), Pseudomonas aeruginosa IFO 3455. Conditions: Pseudomonas aeruginosa, IFO3455, read-out: Minimum inhibitory concentration (MIC).
Excerpt: as §2, §3, §4

As for `CC(=O)NC[C@H]1[C@@H](NC(=O)/C(=N\OC(C)(C)C(=O)O)c2csc(N)n2)C(=O)N1S(=O)(=O)O` (relative stereo) [Example No. 147C, cis-3-[2-(2-amino-4-thiazolyl)-2-(1-methyl-1-carboxyethyloxyimino)acetamido]-4-acetamidomethyl-2-oxoazetidine-1-sulfonic acid (syn-isomer)], the MIC in [1] was 3.13 µg/mL (≈ 6.36 µM); in experiment [2] it was 0.39 µg/mL (≈ 0.792 µM).
For the compound `CC(=O)OC[C@H]1[C@@H](NC(=O)/C(=N\OC(C)(C)C(=O)O)c2csc(N)n2)C(=O)N1S(=O)(=O)O` (relative stereo) [Example No. 136C, cis-3-[2-(2-amino-4-thiazolyl)-2-(1-methyl-1-carboxyethyloxyimino)acetamido]-4-acetoxymethyl-2-oxoazetidine-1-sulfonic acid disodium salt (syn-isomer)], the MIC in [2] came out at 1.56 µg/mL.
With `CC(C)(O/N=C(\C(=O)N[C@H]1C(=O)N(S(=O)(=O)O)[C@@H]1C(N)=O)c1csc(N)n1)C(=O)O` (relative stereo) [Example No. 144C, trans-3-[2-(2-amino-4-thiazolyl)-2-(1-methyl-1-carboxyethyloxyimino)acetamido]-4-carbamoyl-2-oxoazetidine-1-sulfonic acid (syn-isomer)], the MIC in experiment [1] was 6.25 µg/mL (≈ 13.5 µM); in [2] it was 3.13 µg/mL (≈ 6.74 µM).
On the same counts, the results for `CC(C)(O/N=C(\C(=O)N[C@H]1C(=O)N(S(=O)(=O)O)[C@H]1C(N)=O)c1csc(N)n1)C(=O)O` (relative stereo) [Example No. 133C, cis-3-[2-(2-amino-4-thiazolyl)-2-(1-methyl-1-carboxyethyloxyimino)acetamido]-4-carbamoyl-2-oxoazetidine-1-sulfonic acid (syn-isomer)] are 1.56 µg/mL (≈ 3.36 µM) and 0.39 µg/mL (≈ 0.84 µM).
With `CCN1CCN(C(=O)N[C@@H](C(=O)NC2CN(S(=O)(=O)O)C2=O)c2ccccc2)C(=O)C1=O` (single isomer, unassigned) [Compound B, Sodium 3-[D(-)-N-(4-ethyl-2,3-dioxo-1-piperazinocarbonyl)-phenylglycinamido]-2-oxoazetidine-1-sulfonate], the MIC is > 100 µg/mL in the experiment on Escherichia coli T-7 and 0.2 µg/mL with Escherichia coli 0-111.
With `CCCCCCCCN1CCN(C(=O)N[C@@H](C(=O)NC2CN(S(=O)(=O)O)C2=O)c2ccccc2)C(=O)C1=O` (stereo partly drawn) [Compound G, Sodium 3-[D-2-(4-n-octyl-2,3-dioxo-1-piperazinocarboxamido)-2-phenylacetamido]-2-oxoazetidine-1-sulfonate], the results for the MIC in the experiment with Escherichia coli T-7 and with Escherichia coli 0-111 were > 100 µg/mL and 0.78 µg/mL, respectively.
`CCCCCCCCN1CCN(C(=O)NC(C(=O)NC2CN(S(=O)(=O)O)C2=O)c2csc(N)n2)C(=O)C1=O` (stereo not drawn) [Compound H, Sodium 3-[2-(4-n-octyl-2,3-dioxo-1-piperazinocarboxamido)-2-(2-amino-4-thiazolyl)-acetamido]2-oxoazetidine-1-sulfonate]: the MIC is 3.13 µg/mL in experiment [3]; > 100 µg/mL in the experiment on Escherichia coli T-7; 3.13 µg/mL in the experiment with Escherichia coli 0-111; 3.13 µg/mL in [4]; 3.13 µg/mL in [5].
With `CCN1CCN(C(=O)NC(C(=O)NC2CN(S(=O)(=O)O)C2=O)c2csc(N)n2)C(=O)C1=O` (stereo not drawn) [Compound D, Sodium 3-[2-(4-ethyl-2,3-dioxo-1-piperazinocarboxamido)-2-(2-amino-4-thiazolyl)-acetamido]-2-oxoazetidine-1-sulfonate], the results for the MIC with Escherichia coli T-7 and with Escherichia coli 0-111 were > 100 µg/mL and 0.1 µg/mL, respectively.
As for `COC(=O)[C@H]1[C@@H](NC(=O)/C(=N\OCC(=O)O)c2csc(N)n2)C(=O)N1S(=O)(=O)O` (relative stereo) [Example No. 65C, cis-3-[2-(2-amino-4-thiazolyl)-2-carboxylmethyloxyiminoacetamido]-4-methoxycarbonyl-2-oxoazetidine-1-sulfonic acid disodium salt], the values for the MIC in [1] and in [2] were 6.25 µg/mL and 0.2 µg/mL, respectively.
With `O=C(NC1CN(S(=O)(=O)O)C1=O)[C@H](NC(=O)N1CCN(N=Cc2cccs2)C1=O)c1ccccc1` (stereo partly drawn) [Compound K, Sodium 3-[D-2-[[2-oxo-3-(thiophen-2-aldoimino)-imidazolidin-1-yl]-carboxamido]-2-phenylacetamido]-2-oxoazetidine-1-sulfonate], the MIC in the experiment with Escherichia coli T-7 was > 100 µg/mL; in the experiment on Escherichia coli 0-111, 0.39 µg/mL.
On to `CO/N=C(\C(=O)N[C@H]1C(=O)N(S(=O)(=O)O)[C@H]1COC(N)=O)c1csc(N)n1` (relative stereo) [Example No. 138C, sodium cis-3-[2-(2-amino-4-thiazolyl)-2-methoxyiminoacetamido]-4-carbamoyloxymethyl-2-oxoazetidine-1-sulfonate (syn-isomer)], for which, in experiment [2], the MIC stood at 6.25 µg/mL.
As for `COC(=O)C[C@@H]1[C@@H](NC(=O)/C(=N\OC(C)(C)C(=O)O)c2csc(N)n2)C(=O)N1S(=O)(=O)O` (relative stereo) [Example No. 158C, trans-3-[2-(2-amino-4-thiazolyl)-2-(1-methyl-1-carboxyethyloxyimino)acetamido]-4-methoxycarbonylmethyl-2-oxo-azetidine-1-sulfonic acid (syn-isomer)], the MIC in experiment [1] was 3.13 µg/mL (≈ 6.34 µM); in experiment [2], 6.25 µg/mL (≈ 12.7 µM).
For `O=C(NC1CN(S(=O)(=O)O)C1=O)[C@H](NC(=O)N1CCN(N=Cc2ccco2)C1=O)c1ccccc1` (stereo partly drawn) [Compound I, Sodium 3-[D-2-[(2-oxo-3-furfurylideneaminoimidazolidin-1-yl)-carboxamido]-2-phenylacetamido]-2-oxoazetidine-1-sulfonate], the MIC with Escherichia coli T-7 is > 100 µg/mL; in [6], 3.13 µg/mL; in the experiment on Escherichia coli 0-111, 3.13 µg/mL; in experiment [7] it was 3.13 µg/mL; in experiment [5], 3.13 µg/mL.
As for `COC(=O)[C@H]1[C@@H](NC(=O)/C(=N\OC(C)(C)C(=O)O)c2csc(N)n2)C(=O)N1S(=O)(=O)O` (relative stereo) [Example No. 68C, cis-3-[2-(2-amino-4-thiazolyl)-2-(1-methyl-1-carboxyethyloxyimino)acetamido]-4-methoxycarbonyl-2-oxoazetidine-1-sulfonic acid disodium salt], the MIC in experiment [1] came out at 3.13 µg/mL; in experiment [2], 0.78 µg/mL.
Regarding `C=CCO/N=C(\C(=O)N[C@H]1C(=O)N(S(=O)(=O)O)[C@H]1C(=O)OC)c1csc(N)n1` (relative stereo) [Example No. 72C, sodium cis-3-[2-(2-amino-4-thiazolyl)-2-allyloxyiminoacetamido]-4-methoxycarbonyl-2-oxoazetidine-1-sulfonate], the MIC in [1] stood at 1.56 µg/mL.
